Results: US6127360A, “Diamine derivatives and pharmaceutical containing the same” (Kowa Co., Ltd., priority 1997, dated 2000)

Columns and labels:
LTD4 receptor = target: T1, LTD4 receptor (Cavia porcellus, UniProt Q2NNR5); test: LTD4 Receptor Binding Inhibition Test ([3H]LTD4, guinea pig pulmomembranous protein); conditions: read-out: LTD4 receptor dissociation constant (KD)
T1 construct: guinea pig pulm-omembranous protein and a test compound; from tissue; host or cells: guinea pig lung membranes
T1 sequence (Q2NNR5 1-340): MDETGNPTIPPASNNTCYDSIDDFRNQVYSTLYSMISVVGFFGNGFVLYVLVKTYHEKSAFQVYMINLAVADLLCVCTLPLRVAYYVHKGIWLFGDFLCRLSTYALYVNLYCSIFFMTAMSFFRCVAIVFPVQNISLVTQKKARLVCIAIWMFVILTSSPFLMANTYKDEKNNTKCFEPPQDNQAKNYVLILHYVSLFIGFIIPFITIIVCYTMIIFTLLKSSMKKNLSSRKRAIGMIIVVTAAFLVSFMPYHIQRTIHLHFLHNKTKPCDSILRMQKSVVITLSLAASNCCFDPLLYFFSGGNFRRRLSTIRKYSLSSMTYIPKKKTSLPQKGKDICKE
Description: LTD4 Receptor Binding Inhibition Test
An ice-cold tris hydrochloride/sodium chloride buffer (10 mM/100 mM, pH 7.5) was added to terminate the reaction, followed by immediate filtration through a Wattman CF/C filter. The filter was washed twice with 20 ml aliquots of the ice-cold buffer. The radioactivity of the residue was measured by a liquid scintillation counter.
In a binding assay, […] LTD4 was used for the measurement of a nonspecific binding.

H1 = target: T2, H1 (Mus musculus, UniProt P70174); test: Brain Penetration Test (ex vivo [3H]mepyramin binding in mouse brain); conditions: ip; for ED50: peritoneal administration to mouse, brain taken 1 hour after, [3H]mepyramin 0.5 nM, read-out: IC50 (50% inhibitory dose), ex vivo; for selectivity ratio at 1 h: mouse, brain, IC50 (mg/kg)/H1 binding inhibition dissociation constant (nM), read-out: BP index
T2 construct: from tissue; host or cells: mouse brain homogenate, ex vivo after intraperitoneal dosing
T2 sequence (P70174 whole entry): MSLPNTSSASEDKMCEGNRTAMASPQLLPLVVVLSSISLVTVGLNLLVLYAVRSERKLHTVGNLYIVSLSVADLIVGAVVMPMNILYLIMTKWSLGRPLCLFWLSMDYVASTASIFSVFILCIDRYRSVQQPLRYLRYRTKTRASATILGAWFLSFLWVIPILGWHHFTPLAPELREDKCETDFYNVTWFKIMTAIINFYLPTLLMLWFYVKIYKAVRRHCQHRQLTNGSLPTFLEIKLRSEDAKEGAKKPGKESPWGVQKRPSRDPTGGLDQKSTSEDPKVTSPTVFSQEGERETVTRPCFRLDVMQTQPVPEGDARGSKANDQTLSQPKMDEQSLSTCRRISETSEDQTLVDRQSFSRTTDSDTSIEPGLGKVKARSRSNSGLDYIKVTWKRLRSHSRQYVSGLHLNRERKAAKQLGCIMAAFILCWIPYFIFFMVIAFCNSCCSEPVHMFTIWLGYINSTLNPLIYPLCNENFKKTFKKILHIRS
Description: Described specifically, to a mouse of 20 g to 23 g, a test compound of a given concentration was peritoneally administered. Upon elapsed time of one hour after the administration, the mouse was sacrificed. The brain tissue was taken out, and was then homogenated with a 30 mM Na,K phosphate buffer (pH 7.5) to give 40 ml/g wet weight. […] Subsequent to incubation at 37° C. for 50 minutes, an ice-cold phosphate buffer was added to terminate the reaction. Each of the resulting mixtures was immediately filtered through Wattman CF/C filter. The filter was washed twice with 20 ml aliquots of the ice-cold buffer. The radioactivity of the residue was measured by a liquid scintillation counter. […] A BP index as an index of brain penetration was calculated in accordance with the following formula:
BP index=IC50 (mg/kg)/H1 binding inhibition dissociation constant (nM)

H1 receptor = target: T3, H1 receptor (Cavia porcellus, UniProt P31389); test: H1 Receptor Binding Inhibition Test ([3H]mepyramin, guinea pig cerebromembranous protein); conditions: read-out: H1 receptor dissociation constant (KD)
T3 construct: guinea pig cerebromembranous protein and a test compound; from tissue; host or cells: guinea pig brain membranes
T3 sequence (P31389 whole entry): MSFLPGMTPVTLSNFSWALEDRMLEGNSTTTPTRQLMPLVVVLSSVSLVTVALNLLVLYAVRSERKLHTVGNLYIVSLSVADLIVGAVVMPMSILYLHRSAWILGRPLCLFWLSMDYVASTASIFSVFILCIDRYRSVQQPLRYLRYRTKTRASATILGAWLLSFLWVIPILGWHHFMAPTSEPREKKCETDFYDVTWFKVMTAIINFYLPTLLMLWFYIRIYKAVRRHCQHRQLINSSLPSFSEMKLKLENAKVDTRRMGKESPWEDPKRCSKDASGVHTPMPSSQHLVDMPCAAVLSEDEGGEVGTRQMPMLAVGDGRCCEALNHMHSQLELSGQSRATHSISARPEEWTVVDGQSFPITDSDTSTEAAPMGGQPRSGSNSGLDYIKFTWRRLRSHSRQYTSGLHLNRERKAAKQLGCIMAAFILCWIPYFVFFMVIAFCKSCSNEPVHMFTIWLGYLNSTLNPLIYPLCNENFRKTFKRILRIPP
Description: H1 Receptor Binding Inhibition Test
An ice-cold phosphate buffer was added to terminate the reaction, followed by immediate filtration through a Wattman CF/C filter. The filter was washed twice with 20 ml aliquots of the ice-cold buffer. The radio-activity of the residue was measured by a liquid scintillation counter. From a measurement value obtained without the addition of the test compound and measurements values obtained upon addition of the test compound at various concentrations, the dose-response of the inhibitory action of the test compound was measured and the 50% inhibitory concentration (IC50) was determined. Using the Cheng-Prusoff formula, a dissociation constant (KD) was calculated from the 50% inhibitory concentration (IC50).
In a binding assay, 10^4 M R(-)dimethindene was used for the measurement of a nonspecific binding.

[1] = target: T4, isolated guinea pig ileum (Cavia porcellus, UniProt Q2NNR5); test: Anti-LTD4 action on isolated guinea pig ileum (LTD4 contraction); assay type: cell-based; conditions: 10^-5 M test compound; contraction caused by 10^-8 M LTD4; read-out: Anti-LTD4 action (inhibition rate)
T4 construct: An isolated guinea pig ileum was cut into about 2 cm lengths; from tissue; host or cells: guinea pig ileum
T4 sequence (Q2NNR5 1-340): T1 sequence (Q2NNR5 1-340)
Description: Antihistaminic Action and Anti-LTD4 Action (In vitro Tests)
An isolated guinea pig ileum was cut into about 2 cm lengths. Each ileum piece was suspended in a 20-ml container filled with the Tyrode's buffer. An isotonic contractive response by histamine or LTD4 was recorded on a recorder. The Tyrode's buffer was controlled at 30° C., through which a mixed gas (95%O2 -5%CO2) was bubbled.

| SMILES | Ki (LTD4 receptor) | ED50 (H1) | selectivity ratio at 1 h (H1) | Ki (H1 receptor) | inhibition at 10 µM [1] |
| --- | --- | --- | --- | --- | --- |
| O=C1CSc2cc(OCCCN3CCN(Cc4ccc5ccccc5n4)CC3)ccc2N1 [Example 90, 7-{3-[4-(2-quinolylmethyl)piperazinyl]propoxy}-3,4-dihydro-2H-1,4-benzothiazin-3-one] | 9410 nM | 8.5 mg/kg | 1.7 | 5.01 nM | 16% |
| Cc1ccc(OCCCN2CCN(Cc3ccc4ccccc4n3)CC2)c2c1NC(=O)CC2 [Example 91, 8-methyl-5-{3-[4-(2-quinolylmethyl)piperazinyl]propoxy}-1,2,3,4-tetrahydroquinolin-2-one] | – | 10 mg/kg | 35.7 | – | – |
| CC1(C)C(=O)Nc2ccc(OCCN3CCN(Cc4ccc5ccccc5n4)CC3)cc21 [Example 1, 3,3-dimethyl-5-{2-[4-(2-quinolylmethyl)-1-piperazinyl]ethoxy}-2,3-dihydro-1H-indol-2-one] | 3240 nM | – | – | 173 nM | 16% |
| O=c1ccc2ccc(OCCN3CCCN(Cc4ccc5ccccc5n4)CC3)cc2[nH]1 [Example 79, 7-{2-[4-(2-Quinolylmethyl)-1-homopiperazinyl]ethoxy}-1,2-dihydroquinolin-2-one] | 8610 nM | – | – | 75.9 nM | 19% |
| Cc1ccc(OCCN2CCCN(Cc3ccc4ccccc4n3)CC2)c2c1NC(=O)CC2 [Example 61, 8-Methyl-5-{2-[4-(2-quinolylmethyl)-1-homopiperazinyl]ethoxy}-1,2,3,4-tetrahydroquinolin-2-one] | 1610 nM | – | – | 4.69 nM | 19% |
| Cc1ccc(OCCCN2CCN(Cc3ccc4ccccc4n3)CC2)c2c1NC(=O)C2(C)C [Example 92] | 4230 nM | 16.5 mg/kg | 0.29 | 55.7 nM | 42% |
